Test results published in patent publication US8952024B2, “Herbicidal pyrimidone derivatives” (E I du Pont de Nemours and Company, priority 2009, dated 2015).

How the values were obtained:
Assay type in all cases: in vivo
[1] = tested on: bermudagrass (Cynodon dactylon); assay: Test B pre-/postemergence plant response
Excerpt: (§1) Seeds of plant species selected from blackgrass (Alopecurus myosuroides), downy bromegrass (Bromus tectorum), green foxtail (Setaria viridis), Italian ryegrass (Lolium multiflorum), wheat (Triticum aestivum), wild oat (Avena fatua), deadnettle (henbit deadnettle, Lamium amplexicaule), galium (catchweed bedstraw, Galium aparine), bermudagrass (Cynodon dactylon), Surinam grass (Brachiaria decumbens), cocklebur (Xanthium strumarium), corn (Zea mays), large crabgrass (Digitaria sanguinalis), woolly cupgrass (Eriochloa villosa), giant foxtail (Setaria faberii), goosegrass (Eleusine indica), johnsongrass (Sorghum halepense), kochia (Kochia scoparia), lambsquarters (Chenopodium album), morningglory (Ipomoea coccinea), nightshade (eastern black nightshade, Solanum ptycanthum), yellow nutsedge (Cyperus esculentus), pigweed (Amaranthus retroflexus), ragweed (common ragweed, Ambrosia elatior), Russian thistle (Salsola kali), soybean (Glycine max), sunflower (common oilseed sunflower, Helianthus annuus) and velvetleaf (Abutilon theophrasti) were planted into a blend of loam soil and sand and treated preemergence with test compounds formulated in a non-phytotoxic solvent mixture which included a surfactant.
(§2) At the same time, plants selected from these crop and weed species and also winter barley (Hordeum vulgare), canarygrass (Phalaris minor), chickweed (Stellaria media) and windgrass (Apera spica-venti) were planted in pots containing Redi-Earth® planting medium (Scotts Company, 14111 Scottslawn Road, Marysville, Ohio 43041) comprising spaghnum peat moss, vermiculite, wetting agent and starter nutrients and treated with postemergence applications of some of the test chemicals formulated in the same manner. Plants ranged in height from 2 to 18 cm (1- to 4-leaf stage) for postemergence treatments.
(§3) Treated plants and controls were maintained in a greenhouse for 13 to 15 days, after which time all treated plants were visually evaluated and compared to controls. Plant response ratings, summarized in Table B, are based on a scale of 0 to 100 where 0 is no effect and 100 is complete control. A dash (-) response means no test result.

[2] = tested on: blackgrass (Alopecurus myosuroides); assay: Test B pre-/postemergence plant response
Excerpt: as §1, §2, §3

[3] = tested on: cocklebur (Xanthium strumarium); assay: Test B pre-/postemergence plant response
Excerpt: as §1, §2, §3

corn (Zea mays) = assay: Test B pre-/postemergence plant response
Excerpt: as §1, §2, §3

[4] = tested on: giant foxtail (Setaria faberii); assay: Test B pre-/postemergence plant response
Excerpt: as §1, §2, §3

[5] = tested on: johnsongrass (Sorghum halepense); assay: Test B pre-/postemergence plant response
Excerpt: as §1, §2, §3

kochia (Kochia scoparia) = assay: Test B pre-/postemergence plant response; settings: Postemergence; for Plant response rating, Kochia: scale 0 (no effect) to 100 (complete control); for Kochia plant response rating: 250 g ai/ha, scale 0 to 100
Excerpt: as §1, §2, §3

[6] = tested on: morningglory (Ipomoea coccinea); assay: Test B pre-/postemergence plant response
Excerpt: as §1, §2, §3

soybean (Glycine max) = assay: Test B pre-/postemergence plant response
Excerpt: as §1, §2, §3

wild oat (Avena fatua) = assay: Test B pre-/postemergence plant response
Excerpt: as §1, §2, §3

[7] = tested on: canarygrass (Phalaris minor); assay: Test B postemergence plant response; settings: Postemergence; for Canarygrass plant response rating: 250 g ai/ha, scale 0 to 100
Outline: (§4)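 Plants grown in peat/vermiculite medium were sprayed postemergence at 2–18 cm height (1- to 4-leaf stage). After 13–15 days in the greenhouse, response was rated visually against untreated controls on a 0–100 scale (0 no effect, 100 complete control).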

[8] = tested on: chickweed (Stellaria media); assay: Test B postemergence plant response; settings: Postemergence; for Chickweed plant response rating: 250 g ai/ha, scale 0 to 100
Outline: as §4

[9] = tested on: windgrass (Apera spica-venti); assay: Test B postemergence plant response; settings: Postemergence, scale 0 (no effect) to 100 (complete control)
Outline: as §4

[10] = tested on: winter barley (Hordeum vulgare); assay: Test B postemergence plant response; settings: Postemergence; for Barley plant response rating: 250 g ai/ha, scale 0 to 100
Outline: as §4

[11] = 250 g ai/ha, Preemergence, 0 to 100 scale
[12] = Postemergence, 62 g ai/ha, scale 0 (no effect) to 100 (complete control), 13 to 15 days
[13] = Postemergence, 125 g ai/ha, visual rating after 13 to 15 days, scale 0 (no effect) to 100 (complete control)
[14] = Postemergence, 250 g ai/ha, scale 0 to 100
[15] = Preemergence, 31 g ai/ha, scale 0 to 100 (0 no effect, 100 complete control)
[16] = Preemergence, 62 g ai/ha, scale 0 to 100 (0 no effect, 100 complete control)
[17] = Preemergence, 125 g ai/ha, 0 to 100 scale
[18] = Postemergence, 31 g ai/ha, scale 0 to 100 (0 no effect, 100 complete control)
[19] = 125 g ai/ha, visual rating after 13 to 15 days
[20] = 31 g ai/ha, scale 0 to 100 (0 no effect, 100 complete control)
[21] = 62 g ai/ha, scale 0 (no effect) to 100 (complete control), 13 to 15 days
[22] = 125 g ai/ha, visual rating after 13 to 15 days, scale 0 (no effect) to 100 (complete control)

Cc1c(Cl)cccc1-n1c(-c2ccccc2)ncc(C(=O)C2=C(O)CCCC2=O)c1=O [Compound 40]
35: Canarygrass plant response rating [7]
75: Plant response rating, Johnsongrass [5, 13] | Kochia plant response rating (kochia (Kochia scoparia)) | Plant response rating, Morningglory [6, 13]
65: Plant response rating, Cocklebur [3, 15] | Plant response rating, Foxtail, Giant [4, 16] | Plant response rating, Morningglory [6, 11]
80: Plant response rating, Corn (corn (Zea mays); [18]) | Plant response rating, Corn (corn (Zea mays); [12]) | Foxtail, Giant plant response rating [4, 17] | Plant response rating, Johnsongrass [5, 16] | Plant response rating, Windgrass [9, 19]
85: Cocklebur plant response rating [3, 17] | Plant response rating, Corn (corn (Zea mays); [13]) | Johnsongrass plant response rating [5, 17] | Plant response rating, Oat, Wild (wild oat (Avena fatua); [12])
20: Soybean plant response rating (soybean (Glycine max); [17]) | Plant response rating, Canarygrass [7, 20] | Plant response rating, Canarygrass [7, 21]
90: Corn plant response rating (corn (Zea mays); [14]) | Plant response rating, Johnsongrass [5, 11] | Plant response rating, Oat, Wild (wild oat (Avena fatua); [13])
10: Plant response rating, Blackgrass [2, 12] | Plant response rating, Blackgrass [2, 13] | Plant response rating, Foxtail, Giant [4, 15] | Plant response rating, Johnsongrass [5, 15] | Plant response rating, Kochia (kochia (Kochia scoparia); [19]) | Plant response rating, Barley [10, 22] | Barley plant response rating [10]
100: Plant response rating, Bermudagrass [1, 11] | Plant response rating, Bermudagrass [1, 12] | Plant response rating, Bermudagrass [1, 13] | Bermudagrass plant response rating [1, 14] | Plant response rating, Bermudagrass [1, 16] | Bermudagrass plant response rating [1, 17] | Plant response rating, Cocklebur [3, 11] | Plant response rating, Foxtail, Giant [4, 18] | Plant response rating, Foxtail, Giant [4, 12] | Plant response rating, Foxtail, Giant [4, 13] | Foxtail, Giant plant response rating [4, 14] | Johnsongrass plant response rating [5, 14] | Plant response rating, Soybean (soybean (Glycine max); [12]) | Plant response rating, Soybean (soybean (Glycine max); [13]) | Plant response rating, Chickweed [8, 20] | Plant response rating, Chickweed [8, 21] | Plant response rating, Chickweed [8, 22] | Chickweed plant response rating [8]
30: Plant response rating, Oat, Wild (wild oat (Avena fatua); [11]) | Plant response rating, Canarygrass [7, 22]
0: Plant response rating, Blackgrass [2, 18] | Plant response rating, Blackgrass [2, 15] | Plant response rating, Blackgrass [2, 16] | Blackgrass plant response rating [2, 17] | Plant response rating, Corn (corn (Zea mays); [11]) | Plant response rating, Corn (corn (Zea mays); [15]) | Plant response rating, Corn (corn (Zea mays); [16]) | Corn plant response rating (corn (Zea mays); [17]) | Plant response rating, Kochia (kochia (Kochia scoparia); 62 g ai/ha, 13 to 15 days) | Plant response rating, Morningglory [6, 15] | Plant response rating, Morningglory [6, 16] | Morningglory plant response rating [6, 17] | Plant response rating, Soybean (soybean (Glycine max); [15]) | Plant response rating, Oat, Wild (wild oat (Avena fatua); [15]) | Oat, Wild plant response rating (wild oat (Avena fatua); [17]) | Plant response rating, Barley [10, 20] | Plant response rating, Barley [10, 21]
70: Plant response rating, Soybean (soybean (Glycine max); [11]) | Plant response rating, Windgrass ([9]; 62 g ai/ha, 13 to 15 days)
5: Plant response rating, Blackgrass [2, 11]
15: Blackgrass plant response rating [2, 14]
98: Plant response rating, Bermudagrass [1, 15] | Plant response rating, Foxtail, Giant [4, 11]

CCCCc1ncc(C(=O)C2=C(O)CCCC2=O)c(=O)n1-c1ccccc1 [Compound 42]
80: Plant response rating, Chickweed [8, 22]
65: Plant response rating, Foxtail, Giant [4, 12] | Plant response rating, Johnsongrass [5, 11] | Johnsongrass plant response rating [5, 14]
70: Plant response rating, Bermudagrass [1, 18] | Plant response rating, Morningglory [6, 12] | Plant response rating, Chickweed [8, 21] | Plant response rating, Windgrass [9, 19]
75: Plant response rating, Bermudagrass [1, 12] | Plant response rating, Foxtail, Giant [4, 13] | Plant response rating, Morningglory [6, 13]
45: Plant response rating, Cocklebur [3, 12] | Corn plant response rating (corn (Zea mays); [14]) | Plant response rating, Foxtail, Giant [4, 18]
85: Plant response rating, Cocklebur [3, 13] | Foxtail, Giant plant response rating [4, 14]
90: Plant response rating, Bermudagrass [1, 15] | Plant response rating, Soybean (soybean (Glycine max); [12])
20: Blackgrass plant response rating [2, 14] | Plant response rating, Corn (corn (Zea mays); [13])
100: Plant response rating, Bermudagrass [1, 11] | Plant response rating, Bermudagrass [1, 16] | Bermudagrass plant response rating [1, 17] | Plant response rating, Kochia (kochia (Kochia scoparia); 62 g ai/ha, 13 to 15 days) | Plant response rating, Kochia (kochia (Kochia scoparia); [19]) | Kochia plant response rating (kochia (Kochia scoparia))
60: Plant response rating, Chickweed [8, 20] | Plant response rating, Windgrass ([9]; 62 g ai/ha, 13 to 15 days)
98: Bermudagrass plant response rating [1, 14]
95: Plant response rating, Bermudagrass [1, 13] | Cocklebur plant response rating [3, 14] | Plant response rating, Soybean (soybean (Glycine max); [13]) | Chickweed plant response rating [8]
40: Plant response rating, Johnsongrass [5, 13]
0: Plant response rating, Blackgrass [2, 15] | Plant response rating, Blackgrass [2, 16] | Blackgrass plant response rating [2, 17] | Plant response rating, Cocklebur [3, 18] | Plant response rating, Cocklebur [3, 15] | Plant response rating, Cocklebur [3, 16] | Plant response rating, Corn (corn (Zea mays); [11]) | Plant response rating, Corn (corn (Zea mays); [18]) | Plant response rating, Corn (corn (Zea mays); [15]) | Plant response rating, Corn (corn (Zea mays); [16]) | Corn plant response rating (corn (Zea mays); [17]) | Plant response rating, Foxtail, Giant [4, 15] | Plant response rating, Foxtail, Giant [4, 16] | Plant response rating, Johnsongrass [5, 12] | Plant response rating, Johnsongrass [5, 15] | Plant response rating, Johnsongrass [5, 16] | Plant response rating, Morningglory [6, 11] | Plant response rating, Morningglory [6, 15] | Plant response rating, Morningglory [6, 16] | Morningglory plant response rating [6, 17] | Plant response rating, Soybean (soybean (Glycine max); [11]) | Plant response rating, Soybean (soybean (Glycine max); [15]) | Soybean plant response rating (soybean (Glycine max); [17]) | Plant response rating, Oat, Wild (wild oat (Avena fatua); [11]) | Plant response rating, Oat, Wild (wild oat (Avena fatua); [15]) | Oat, Wild plant response rating (wild oat (Avena fatua); [17]) | Plant response rating, Canarygrass [7, 20] | Plant response rating, Canarygrass [7, 21] | Plant response rating, Canarygrass [7, 22] | Canarygrass plant response rating [7] | Plant response rating, Barley [10, 20] | Plant response rating, Barley [10, 21] | Plant response rating, Barley [10, 22]
5: Plant response rating, Blackgrass [2, 11] | Plant response rating, Blackgrass [2, 18] | Barley plant response rating [10]
15: Plant response rating, Blackgrass [2, 13]
10: Plant response rating, Blackgrass [2, 12] | Plant response rating, Corn (corn (Zea mays); [12]) | Plant response rating, Foxtail, Giant [4, 11] | Foxtail, Giant plant response rating [4, 17] | Johnsongrass plant response rating [5, 17] | Plant response rating, Oat, Wild (wild oat (Avena fatua); [12]) | Plant response rating, Oat, Wild (wild oat (Avena fatua); [13])
